The values below are quoted from earlier work in patent EP3292864A1, “MODIFIED RELEASE TABLET COMPOSITION COMPRISING MIRABEGRON” (Synthon B.V., priority 2017, dated 2018).

Molecules are shown by their SMILES.

In the case of `Nc1nc(CC(=O)Nc2ccc(CCNC[C@H](O)c3ccccc3)cc2)cs1` [Mirabegron, (R)-2-(2-aminothiazol-4-yl)-4'-[2-[(2-hydroxy-2-phenylethyl)amino]ethyl]acetic acid anilide], the solubility in water entry (assessment report of Betmiga® published by the European Medicines Agency) is “soluble in water between neutral to acidic pH”. Moreover, under “per BCS class”, the solubility result is given as “high solubility”.
